US20140243292A1, “SUBSITUTED 2-(CHROMAN-6-YLOXYL)-THIAZOLES AND THEIR USE AS PHARMACEUTICALS” (Sanofi, priority 2011, published 2014)
Structures can show the parent of a compound that is named as a salt.

How the values were obtained:
human NCX1 [1] = target: T1, human NCX1 (Homo sapiens, UniProt P32418); experiment: NCX1 inhibition, forward mode (Ca2+ efflux out of cells), FLIPR calcium assay; type: cell-based; details: for IC50: CHO cells stably expressing human NCX1, read-out: NCX1fw IC50; for inhibition at 10 µM: CHO cells stably expressing human NCX1, read-out: Inhibition in % at 10 μM, IC50 value not determined
T1 construct: expressed in transfected cells
Excerpt: The sodium/calcium exchanger NCX1 can transport calcium ions and sodium ions through the cell membrane. The transport is an exchange of Ca^2+ and Na^+ in two directions depending on membrane potential and ion gradients. At the first direction, named “forward mode” or “calcium export mode”, Ca^2+ is transported out of the cell and Na^+ is transported into the cell. At the other direction, named “reverse mode” or “calcium import mode”, the transport directions are vice versa. The effect of the compounds of the invention on NCX1 was determined in CHO cells stably expressing human NCX1 (gene symbol SLC8A1; cf. WO 2009/115238). The assay is based on the monitoring of intracellular Ca^2+ concentrations using a calcium-sensitive fluorescence dye which is detected by means of a FLIPR device (Fluorimetric Imaging Plate Reader, Molecular Devices).
The assay is based on the monitoring of intracellular Ca^2+ concentrations using the PBX Calcium Assay Kit from BD (Becton, Dickinson and Company) with calcium indicator dye 51-9000177BKa (BD, 640177). CHO cells expressing NCX1 were loaded with the dye, and after a preincubation period with the test compound, Ionomycin (Calbiochem, 407950) was added. Ionomycin is an ionophor for Ca^2+ ions mediating an increase of intracellular Ca^2+ ions. Consequently, intracellular Ca^2+ ions are exchanged against extracellular Na^+ ions (Ca^2+ efflux, forward mode). The decrease of intracellular Ca^2+ ions was detected by measuring the fluorescence of the calcium indicator dye at a wavelength of 520 nm by a FLIPR device.
Briefly, similarly as for the reverse mode, for the forward mode transport assay 18000 cells per well were seeded into a 96 well microplate (Corning COSTAR 3904) and incubated overnight in culture medium (cf. above). A total volume of 100 μl medium per well was used. For the preparation of the FLIPR assay, the culture medium was removed from the plates and 100 μl of assay buffer (133.8 mM NaCl (Sigma, S5886); 4.7 mM KCl (Sigma, P3911); 1.25 mM MgCl2 (Merck, 1.05833.0250); 3.5 mM CaCl2(Merck, 1.02083.0250); 5 mM glucose (Sigma, G7021); 10 mM Hepes (Sigma, H4034); pH 7.4)) were added to each well in a washing step. Assay buffer was removed, and 100 μl of a solution of the test compound in assay buffer in different concentrations were added into the wells. Further, 100 μl of dye solution (0.09% (v/v) calcium indicator dye, 9.1% (v/v) signal enhancer (from PBX Calcium Assay Kit); in assay buffer) were added into each well. The plates were incubated in the dark at room temperature for 60 min. Meanwhile a 10 μM solution of Ionomycin in assay buffer (additionally containing 0.05% fetal calf serum (cf. above); 4° C.) was prepared and stored in the wells of a 96 well microplate (96 well microplate, polypropylene, U-shape (Greiner Bio-One, 650201)). The fluorescence monitoring was performed at 60 measuring points with measurement intervals of 2 sec. After the fifth measuring point, 50 μl of the Ionomycin solution were added to each well of the assay plate to give a final Ionomycin concentration of 2 μM. For the determination of the IC50 values the minimal fluorescence value was subtracted from the maximal fluorescence value for the fifteenth to fifty-fifth measuring points. The calculation of the IC50 values via the percentage inhibitions of Ca^2+ efflux out of cells (forward mode) effected by the test compound was performed in Biost@t Speed 2.0. “NCX1fw IC50” in Table 2 means the IC50 value for inhibition of NCX1 in forward mode (in μM (micromol/liter)).

human NCX1 [2] = target: T1, human NCX1; experiment: NCX1 inhibition, reverse mode (Ca2+ influx into cells), FLIPR Fluo-4 assay; type: cell-based; details: inhibition of NCX1 in reverse mode (Ca2+ influx into cells); read-out: NCX1rv IC50
Outline: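 Max−min Fluo-4 fluorescence (520 nm, FLIPR, 240 points at 2 s) after 20 µM final gramicidin, which drives Na+ loading and reverse-mode Ca2+ entry, gave % inhibition and IC50. Test compound was preincubated 45 min at 16 °C with Fluo-4-loaded CHO cells stably expressing human NCX1, in pH 7.4 buffer containing 3.5 mM CaCl2 and probenecid.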

Sprague-Dawley rats = experiment: In vivo method for determining the effect on heart contractility (left ventricular dp/dtmax); details: Rattus norvegicus, iv, read-out: Contractility increase (%)
Experimental: Adult male Sprague-Dawley rats (Harlan Winkelmann, Borchen, Germany) weighing 340 to 370 g were anesthetized with pentobarbital (100 mg/kg i.p.) and ventilated with a mixture of oxygen (40%) and room air (60%) at a tidal volume of 1 ml/100 g at 60 breaths/min. Body temperature was maintained at 36.5±0.3° C. with a heating lamp and was monitored with a rectal thermo sensor. Systemic blood pressure was measured in the left carotid artery using a pressure transducer (Combitrans; B. Braun Melsungen AG, Melsungen, Germany) connected to a DC-bridge-amplifier (PLUGSYS/ADC Type 663; Harvard Apparatus GmbH, March-Hugstetten, Germany). The electrocardiogram was measured as lead II via subcutaneously placed electrodes connected to a Heart-Rate-Module ([…] Type 669; Harvard Apparatus GmbH, March-Hugstetten, Germany). A micro-tip catheter (2 French, SPR-320; Millar Instruments, Houston, Tex., USA) was placed via the right carotid artery into the left ventricle, and the left ventricular pressure (LVP) and the enddiastolic pressure (EDP) were continuously measured. Registration of the hemodynamic data was performed via an analog digital converter by a personal computer using Notocord software (HEM version 3.5). Left ventricular contractility (dp/dtmax) and relaxation (dp/dtmin) were calculated from the LVP signal. For intravenous administration of the test compounds, the left jugular vein was prepared and a PP-50 catheter was inserted. Test compounds were administered either by intravenous bolus injection or by intravenous infusion by means of an infusion pump (Unita; B. Braun Melsungen AG, Melsungen, Germany). […] In a typical experiment, several dosages of the test compound were administered subsequently at increasing doses. Statistical significance of the data obtained with drug vs. control experiments, in which solvent was administered, was evaluated with the 2-sided ANOVA test (program Everstat). Increases in left ventricular contractility (percent increase) by example compounds are given in Table 3 in comparison to control experiments in which solvent was administered.

SMILES | IC50 (human NCX1 [1]) [nM] | IC50 (human NCX1 [2]) [nM] | inhibition at 10 µM (human NCX1 [1]) [%] | change in vivo at 0.03 mg/kg/min (Sprague-Dawley rats) [%] | change in vivo at 0.1 mg/kg/min (Sprague-Dawley rats) [%]
CCCNC(=O)c1cnc(Oc2ccc3c(c2)CCC(c2ccccc2)O3)s1 (centres unmarked) [Example 321, 2-(2-Phenyl-chroman-6-yloxy)-thiazole-5-carboxylic acid propylamide] | 1500 | 400 |  |  | 
Cc1ccccc1C1CCc2cc(Oc3nc(C)c(C(=O)NCCO)s3)ccc2O1 (centres unmarked) [Example 335] | 900 | 300 |  |  | 
Cc1ccccc1[C@@H]1CCc2cc(Oc3ncc(C(=O)NCCOP(=O)(O)O)s3)ccc2O1 [Example 345, Phosphoric acid mono-(2-{[2-((S)-2-o-tolyl-chroman-6-yloxy)-thiazole-5-carbonyl]-amino}-ethyl) ester disodium salt] | 3000 | 70 |  | 32 | 85
Cc1ccc(F)cc1C1CCc2cc(Oc3ncc(C(=O)N(C)C)s3)ccc2O1 (centres unmarked) [Example 348] | 800 | 640 |  |  | 

Continued, in another order:

IC50 (human NCX1 [1]) [nM] | IC50 (human NCX1 [2]) [nM] | inhibition at 10 µM (human NCX1 [1]) [%] | SMILES | change in vivo at 0.03 mg/kg/min (Sprague-Dawley rats) [%] | change in vivo at 0.1 mg/kg/min (Sprague-Dawley rats) [%]
 | 200 | 26 | Cc1ccccc1[C@H]1CCc2cc(Oc3ncc(C(=O)NCCO)s3)ccc2O1 [Example 325, 2-((R)-2-o-Tolyl-chroman-6-yloxy)-thiazole-5-carboxylic acid (2-hydroxy-ethyl)-amide] |  | 
 | 210 | 31 | O=C(NCCN1CCNC1=O)c1csc(Oc2ccc3c(c2)CC[C@@H](c2ccccc2)O3)n1 [Example 352] |  | 
